# The source made the active and inactive calls. The calls are words filed in the database; no cut-off is given here.
# How the values were obtained:
# Format in all cases: cell-based
# [1] = molecular target: T1, Toll-like receptor 1/2 (Mus musculus) (UniProt Q9QUN7+Q9EPQ1); experiment: Antagonist activity at TLR2/TLR1 in mouse BMDM assessed as inhibition of Rhodamine-labeled Pam3CSK4-stimulated receptor internalization at 1 uM preincubated for 1 hr followed by Rhodamine-Pam3CSK4 stimulation for 20 mins by FACS analysis
# Toll-like receptor 1/2 [2] = molecular target: T2, Toll-like receptor 1/2 (Homo sapiens, UniProt O60603+Q15399); experiment: Antagonist activity at FLAG-tagged human TLR2/TLR1 expressed in HEK293 cells assessed as inhibition of Pam3CSK4-stimulated MAPK p38 phosphorylation at Thr180/Tyr182 residues at 25 uM preincubated for 1 hr followed by Pam3CSK4 stimulation for 35 mins by immunoblot analysis
# T2 sequence (O60603 whole entry): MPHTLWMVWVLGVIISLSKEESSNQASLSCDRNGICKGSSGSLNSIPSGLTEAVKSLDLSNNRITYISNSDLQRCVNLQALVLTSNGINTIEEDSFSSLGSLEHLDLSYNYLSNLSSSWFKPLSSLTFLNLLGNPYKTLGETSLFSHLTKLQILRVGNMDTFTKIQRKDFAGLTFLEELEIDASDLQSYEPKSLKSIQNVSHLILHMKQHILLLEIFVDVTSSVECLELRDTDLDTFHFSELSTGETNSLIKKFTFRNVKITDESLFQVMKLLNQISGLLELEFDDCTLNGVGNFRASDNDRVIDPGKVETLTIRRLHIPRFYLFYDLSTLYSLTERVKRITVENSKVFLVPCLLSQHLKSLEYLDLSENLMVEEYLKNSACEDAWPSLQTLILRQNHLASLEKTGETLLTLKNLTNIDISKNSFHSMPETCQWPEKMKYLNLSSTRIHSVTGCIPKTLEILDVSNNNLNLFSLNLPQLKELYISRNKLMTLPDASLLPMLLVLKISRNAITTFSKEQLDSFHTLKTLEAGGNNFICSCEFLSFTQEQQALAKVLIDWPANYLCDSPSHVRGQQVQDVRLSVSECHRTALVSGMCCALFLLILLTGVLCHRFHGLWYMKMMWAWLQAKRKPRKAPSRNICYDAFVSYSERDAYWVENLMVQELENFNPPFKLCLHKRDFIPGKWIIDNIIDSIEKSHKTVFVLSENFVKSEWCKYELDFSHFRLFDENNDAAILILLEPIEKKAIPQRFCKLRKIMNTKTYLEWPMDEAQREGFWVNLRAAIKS
# T2 sequence (Q15399 whole entry): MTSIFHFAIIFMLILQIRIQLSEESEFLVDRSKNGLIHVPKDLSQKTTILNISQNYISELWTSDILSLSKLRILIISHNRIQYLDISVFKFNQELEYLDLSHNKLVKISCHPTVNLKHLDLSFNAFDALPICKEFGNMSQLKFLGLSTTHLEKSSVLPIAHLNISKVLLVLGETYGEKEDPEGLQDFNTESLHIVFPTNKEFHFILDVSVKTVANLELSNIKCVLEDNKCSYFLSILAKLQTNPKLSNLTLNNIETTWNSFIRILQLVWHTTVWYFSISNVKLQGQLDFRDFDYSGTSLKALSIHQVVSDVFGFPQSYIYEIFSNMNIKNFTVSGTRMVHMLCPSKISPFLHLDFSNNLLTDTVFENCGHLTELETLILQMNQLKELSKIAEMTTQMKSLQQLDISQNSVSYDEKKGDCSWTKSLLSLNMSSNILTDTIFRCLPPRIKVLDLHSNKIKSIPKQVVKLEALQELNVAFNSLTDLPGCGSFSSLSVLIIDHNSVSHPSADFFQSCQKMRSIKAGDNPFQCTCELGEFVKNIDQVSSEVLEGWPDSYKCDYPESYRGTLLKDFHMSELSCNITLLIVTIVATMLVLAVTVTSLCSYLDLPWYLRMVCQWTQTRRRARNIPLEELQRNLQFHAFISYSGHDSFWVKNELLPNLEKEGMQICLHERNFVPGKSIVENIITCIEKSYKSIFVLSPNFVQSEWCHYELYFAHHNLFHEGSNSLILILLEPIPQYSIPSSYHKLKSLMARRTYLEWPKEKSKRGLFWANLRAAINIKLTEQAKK
# Toll-like receptor 1/2 [3] = molecular target: T2, Toll-like receptor 1/2; experiment: Antagonist activity at FLAG-tagged human TLR2/TLR1 expressed in HEK293 cells assessed as inhibition of Pam3CSK4-stimulated JNK phosphorylation at Thr183/Tyr185 residues at 25 uM preincubated for 1 hr followed by Pam3CSK4 stimulation for 35 mins by immunoblot analysis
# Toll-like receptor 1/2 [4] = molecular target: T2, Toll-like receptor 1/2; experiment: Antagonist activity at FLAG-tagged human TLR2/TLR1 expressed in HEK293 cells co-expressing pGL3-Elam.luc assessed as inhibition of Pam3CSK4-stimulated NF-kappaB activation at 50 uM preincubated for 1 hr followed by Pam3CSK4 stimulation for 5 hrs by luciferase reporter gene assay relative to control
# TLR2/TLR6 (Homo sapiens) = TLR2/TLR6 (Homo sapiens) (UniProt O60603+Q9Y2C9); experiment: Antagonist activity at FLAG-tagged human TLR2/TLR6 expressed in HEK293 cells co-expressing pGL3-Elam.luc assessed as inhibition of Pam2CSK4-stimulated NF-kappaB activation preincubated for 1 hr followed by Pam2CSK4 stimulation for 5 hrs by luciferase reporter gene assay
# Toll-like receptor 1/2 [5] = molecular target: T2, Toll-like receptor 1/2; experiment: Antagonist activity at FLAG-tagged human TLR2/TLR1 expressed in HEK293 cells co-expressing pGL3-Elam.luc assessed as inhibition of Pam3CSK4-stimulated NF-kappaB activation preincubated for 1 hr followed by Pam3CSK4 stimulation for 5 hrs by luciferase reporter gene assay
# [6] = molecular target: T3, Toll-like receptor 4 (Mus musculus) (UniProt Q9QUK6); experiment: Antagonist activity at TLR4 in mouse BMDM assessed as inhibition of LPS-stimulated TNFalpha production at 25 uM preincubated for 1 hr followed by LPS stimulation for 11 hrs by ELISA
# T3 sequence (whole entry): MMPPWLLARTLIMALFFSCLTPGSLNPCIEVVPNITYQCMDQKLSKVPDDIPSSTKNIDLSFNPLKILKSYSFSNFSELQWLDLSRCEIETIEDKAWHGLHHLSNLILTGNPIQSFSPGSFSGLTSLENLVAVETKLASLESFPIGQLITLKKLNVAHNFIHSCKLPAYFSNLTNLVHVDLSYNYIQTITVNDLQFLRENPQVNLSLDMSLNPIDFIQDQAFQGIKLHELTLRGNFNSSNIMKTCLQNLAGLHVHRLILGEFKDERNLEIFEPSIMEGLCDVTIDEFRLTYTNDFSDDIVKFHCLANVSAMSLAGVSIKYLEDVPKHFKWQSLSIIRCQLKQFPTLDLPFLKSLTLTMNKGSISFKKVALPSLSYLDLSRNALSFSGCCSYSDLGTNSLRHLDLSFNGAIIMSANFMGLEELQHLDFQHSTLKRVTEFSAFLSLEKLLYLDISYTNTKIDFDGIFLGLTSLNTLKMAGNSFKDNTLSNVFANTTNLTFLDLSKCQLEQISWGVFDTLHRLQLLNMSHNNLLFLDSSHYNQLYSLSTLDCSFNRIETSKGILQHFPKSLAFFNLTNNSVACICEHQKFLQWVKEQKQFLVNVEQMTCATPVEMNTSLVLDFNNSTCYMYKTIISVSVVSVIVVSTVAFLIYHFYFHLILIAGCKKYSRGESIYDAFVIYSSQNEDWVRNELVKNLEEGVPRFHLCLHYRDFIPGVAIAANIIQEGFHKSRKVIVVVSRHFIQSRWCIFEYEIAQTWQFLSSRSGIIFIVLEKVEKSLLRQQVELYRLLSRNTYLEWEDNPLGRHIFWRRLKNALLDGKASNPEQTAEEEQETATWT
# Toll-like receptor 1/2 [7] = molecular target: T2, Toll-like receptor 1/2; experiment: Antagonist activity at TLR2/TLR1 in human PBMC assessed as inhibition of Pam3CSK4-stimulated IL-10 production by measuring IL-10 level at 100 uM preincubated with cells followed by overnight Pam3CSK4 stimulation by ELISA (reference value: 794 pg/ml)
# Toll-like receptor 1/2 [8] = molecular target: T2, Toll-like receptor 1/2; experiment: Antagonist activity at FLAG-tagged human TLR2/TLR1 expressed in HEK293 cells assessed as inhibition of Pam3CSK4-stimulated JNK phosphorylation at Thr183/Tyr185 residues at 50 uM preincubated for 1 hr followed by Pam3CSK4 stimulation for 35 mins by immunoblot analysis
# Toll-like receptor 1/2 [9] = molecular target: T2, Toll-like receptor 1/2; experiment: Antagonist activity at FLAG-tagged human TLR2/YFP-tagged TLR1 expressed in HEK293 cells assessed as inhibition of Pam3CSK4-stimulated TLR1/TLR2 heterodimerization at 25 uM preincubated for 1 hr followed by Pam3CSK4 stimulation for 15 mins by immunoblot analysis
# Toll-like receptor 1/2 [10] = molecular target: T2, Toll-like receptor 1/2; experiment: Antagonist activity at FLAG-tagged human TLR2/TLR1 expressed in HEK293 cells assessed as inhibition of Pam3CSK4-stimulated IkBalpha degradation at 50 uM preincubated for 1 hr followed by Pam3CSK4 stimulation for 35 mins by immunoblot analysis
# Toll-like receptor 1/2 [11] = molecular target: T2, Toll-like receptor 1/2; experiment: Antagonist activity at FLAG-tagged human TLR2/TLR1 expressed in HEK293 cells co-expressing pGL3-Elam.luc assessed as Pam3CSK4-stimulated NF-kappaB activation at 50 uM preincubated for 1 hr followed by Pam3CSK4 stimulation for 5 hrs by luciferase reporter gene assay relative to control; parameters: scale not given: the % may be the effect or the level left
# [12] = molecular target: T4, Toll-like receptor 3 (Mus musculus) (UniProt Q99MB1); experiment: Antagonist activity at TLR3 in mouse BMDM assessed as inhibition of poly I:C-stimulated TNFalpha production at 25 uM preincubated for 1 hr followed by poly I:C stimulation for 11 hrs by ELISA
# T4 sequence (whole entry): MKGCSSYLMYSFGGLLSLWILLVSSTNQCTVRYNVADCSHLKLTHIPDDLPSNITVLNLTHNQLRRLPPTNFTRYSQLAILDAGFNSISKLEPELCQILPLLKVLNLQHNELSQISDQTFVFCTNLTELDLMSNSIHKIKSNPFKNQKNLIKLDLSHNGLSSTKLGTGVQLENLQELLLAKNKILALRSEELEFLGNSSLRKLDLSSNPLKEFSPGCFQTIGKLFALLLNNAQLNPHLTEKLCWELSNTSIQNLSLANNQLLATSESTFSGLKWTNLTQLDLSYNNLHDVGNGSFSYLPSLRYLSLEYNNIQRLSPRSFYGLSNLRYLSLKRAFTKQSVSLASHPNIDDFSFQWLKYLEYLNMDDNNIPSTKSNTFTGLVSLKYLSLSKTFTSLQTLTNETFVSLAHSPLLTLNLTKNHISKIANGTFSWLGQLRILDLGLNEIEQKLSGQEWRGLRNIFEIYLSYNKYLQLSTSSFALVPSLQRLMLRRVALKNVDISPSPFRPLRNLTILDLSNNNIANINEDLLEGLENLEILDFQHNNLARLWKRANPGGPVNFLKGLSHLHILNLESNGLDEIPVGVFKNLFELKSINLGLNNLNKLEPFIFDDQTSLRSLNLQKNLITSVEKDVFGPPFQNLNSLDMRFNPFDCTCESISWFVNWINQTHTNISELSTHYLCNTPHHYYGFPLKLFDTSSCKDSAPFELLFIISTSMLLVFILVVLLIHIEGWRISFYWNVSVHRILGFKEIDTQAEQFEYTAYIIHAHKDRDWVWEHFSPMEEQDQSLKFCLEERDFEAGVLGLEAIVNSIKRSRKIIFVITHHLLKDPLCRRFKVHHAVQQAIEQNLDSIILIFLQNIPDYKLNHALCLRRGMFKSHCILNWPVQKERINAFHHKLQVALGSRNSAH
# [13] = molecular target: T1, Toll-like receptor 1/2 (Mus musculus); experiment: Antagonist activity at TLR2/TLR1 in mouse BMDM assessed as inhibition of Rhodamine-labeled Pam3CSK4-stimulated receptor internalization at 50 uM preincubated for 1 hr followed by Rhodamine-Pam3CSK4 stimulation for 20 mins by DAPI staining based phase contrast fluorescence microscopic method
# Toll-like receptor 1/2 [14] = molecular target: T2, Toll-like receptor 1/2; experiment: Antagonist activity at FLAG-tagged human TLR2/TLR1 expressed in HEK293 cells assessed as inhibition of Pam3CSK4-stimulated MAPK p38 phosphorylation at Thr180/Tyr182 residues at 50 uM preincubated for 1 hr followed by Pam3CSK4 stimulation for 35 mins by immunoblot analysis
# Toll-like receptor 1/2 [15] = molecular target: T2, Toll-like receptor 1/2; experiment: Antagonist activity at TLR2/TLR1 in human PBMC assessed as inhibition of Pam3CSK4-stimulated TNFalpha production at 50 uM preincubated with cells followed by overnight Pam3CSK4 stimulation by ELISA relative to control
# Toll-like receptor 1/2 [16] = molecular target: T2, Toll-like receptor 1/2; experiment: Antagonist activity at TLR2/TLR1 in human THP1 cells assessed as inhibition of Pam3CSK4-stimulated non-canonical NF-kB pathway by measuring reduction in p52 level at 50 uM preincubated for 1 hr followed by Pam3CSK4 stimulation for 2 hrs by immunoblot analysis
# BMDM = experiment: Cytotoxicity against mouse BMDM at 100 uM after overnight incubation by CCK8 assay
# [17] = molecular target: TLR7 and TLR8 (Mus musculus) (UniProt P58681+P58682); experiment: Antagonist activity at TLR7/TLR8 in mouse BMDM assessed as inhibition of R848-stimulated TNFalpha production at 25 uM preincubated for 1 hr followed by R848 stimulation for 11 hrs by ELISA
# TLR7 and TLR8 (Mus musculus), sequence (P58681 whole entry, looked up): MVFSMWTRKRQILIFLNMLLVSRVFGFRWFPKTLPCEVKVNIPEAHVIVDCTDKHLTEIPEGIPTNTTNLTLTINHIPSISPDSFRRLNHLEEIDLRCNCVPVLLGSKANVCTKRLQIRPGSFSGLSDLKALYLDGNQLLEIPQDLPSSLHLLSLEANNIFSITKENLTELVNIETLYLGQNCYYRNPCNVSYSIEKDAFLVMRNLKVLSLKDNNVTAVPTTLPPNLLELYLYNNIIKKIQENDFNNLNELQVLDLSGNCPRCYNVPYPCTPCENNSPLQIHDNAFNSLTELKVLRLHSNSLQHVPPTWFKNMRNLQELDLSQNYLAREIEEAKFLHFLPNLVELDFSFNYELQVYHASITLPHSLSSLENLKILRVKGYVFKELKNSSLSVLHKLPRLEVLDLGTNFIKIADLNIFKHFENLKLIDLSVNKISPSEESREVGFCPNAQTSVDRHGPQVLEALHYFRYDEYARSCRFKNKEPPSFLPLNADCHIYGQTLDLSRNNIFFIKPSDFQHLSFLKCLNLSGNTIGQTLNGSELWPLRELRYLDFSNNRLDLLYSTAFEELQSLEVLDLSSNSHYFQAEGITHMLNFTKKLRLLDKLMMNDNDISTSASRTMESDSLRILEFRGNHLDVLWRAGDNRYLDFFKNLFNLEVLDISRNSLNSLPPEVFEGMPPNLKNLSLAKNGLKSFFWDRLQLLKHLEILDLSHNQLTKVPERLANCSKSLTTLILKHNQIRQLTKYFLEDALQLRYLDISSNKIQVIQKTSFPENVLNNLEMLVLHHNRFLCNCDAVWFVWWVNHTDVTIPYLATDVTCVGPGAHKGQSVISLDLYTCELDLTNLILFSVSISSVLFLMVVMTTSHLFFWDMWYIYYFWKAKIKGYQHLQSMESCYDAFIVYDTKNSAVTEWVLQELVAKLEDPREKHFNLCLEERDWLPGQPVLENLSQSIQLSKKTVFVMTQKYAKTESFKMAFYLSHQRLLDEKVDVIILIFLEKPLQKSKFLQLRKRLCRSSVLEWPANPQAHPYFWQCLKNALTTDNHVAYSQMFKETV
# TLR7 and TLR8 (Mus musculus), sequence (P58682 whole entry, looked up): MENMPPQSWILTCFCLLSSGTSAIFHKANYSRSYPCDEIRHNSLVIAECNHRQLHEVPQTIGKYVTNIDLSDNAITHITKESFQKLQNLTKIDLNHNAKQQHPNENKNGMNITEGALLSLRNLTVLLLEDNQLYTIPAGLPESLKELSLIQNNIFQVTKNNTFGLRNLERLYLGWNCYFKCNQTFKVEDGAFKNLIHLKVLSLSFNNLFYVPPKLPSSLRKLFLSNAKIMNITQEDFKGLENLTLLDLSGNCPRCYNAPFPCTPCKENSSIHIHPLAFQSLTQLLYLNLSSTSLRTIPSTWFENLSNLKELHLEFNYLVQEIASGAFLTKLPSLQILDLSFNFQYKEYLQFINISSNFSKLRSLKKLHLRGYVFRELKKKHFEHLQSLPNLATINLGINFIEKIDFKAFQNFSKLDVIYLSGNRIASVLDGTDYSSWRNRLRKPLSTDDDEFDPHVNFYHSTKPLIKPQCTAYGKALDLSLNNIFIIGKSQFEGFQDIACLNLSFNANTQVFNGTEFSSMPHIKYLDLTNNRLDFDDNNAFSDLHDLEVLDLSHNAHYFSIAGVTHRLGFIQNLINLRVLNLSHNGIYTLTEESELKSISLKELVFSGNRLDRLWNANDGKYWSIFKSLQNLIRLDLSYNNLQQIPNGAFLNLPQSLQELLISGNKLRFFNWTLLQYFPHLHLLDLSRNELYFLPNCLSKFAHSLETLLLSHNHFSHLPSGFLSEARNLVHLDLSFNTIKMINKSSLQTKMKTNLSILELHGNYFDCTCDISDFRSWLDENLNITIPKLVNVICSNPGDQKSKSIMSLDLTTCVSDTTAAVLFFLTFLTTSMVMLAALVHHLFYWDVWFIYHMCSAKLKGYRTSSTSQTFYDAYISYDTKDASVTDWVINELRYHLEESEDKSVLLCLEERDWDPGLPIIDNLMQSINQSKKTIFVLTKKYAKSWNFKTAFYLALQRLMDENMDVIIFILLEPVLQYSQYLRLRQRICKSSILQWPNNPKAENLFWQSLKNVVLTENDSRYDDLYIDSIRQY
# [18] = molecular target: T1, Toll-like receptor 1/2 (Mus musculus); experiment: Antagonist activity at TLR2/TLR1 in mouse BMDM assessed as Rhodamine-labeled Pam3CSK4-stimulated receptor internalization at 50 uM preincubated for 1 hr followed by Rhodamine-Pam3CSK4 stimulation for 20 mins by FACS analysis relative to control; parameters: scale not given: the % may be the effect or the level left
# [19] = molecular target: T1, Toll-like receptor 1/2 (Mus musculus); experiment: Antagonist activity at TLR2/TLR1 in mouse BMDM assessed as inhibition of Pam3CSK4-stimulated TNFalpha production by measuring TNFalpha level at 25 uM preincubated for 1 hr followed by Pam3CSK4 stimulation for 11 hrs by ELISA relative to control; parameters: scale not given: the % may be the effect or the level left
# THP-1 = experiment: Cytotoxicity against human THP1 cells at 100 uM after overnight incubation by CCK8 assay; conditions: thp-1, 100 µM
# HEK293 = experiment: Cytotoxicity against HEK293 cells at 100 uM after overnight incubation by CCK8 assay; conditions: human, hek293, 100 µM
# Toll-like receptor 1/2 [20] = molecular target: T2, Toll-like receptor 1/2; experiment: Antagonist activity at TLR2/TLR1 in human PBMC assessed as inhibition of Pam3CSK4-stimulated IL-10 production at 100 uM preincubated with cells followed by overnight Pam3CSK4 stimulation by ELISA
compound,measurement,setting,value
C=C1[C@@H](C)[C@H]2[C@H](Cc3ccccc3)NC(=O)[C@]23[C@H](OC(C)=O)/C=C/[C@@](C)(O)C(=O)[C@@H](C)C/C=C/[C@H]3[C@@H]1O,inhibition,[1],Active
Cc1cc(NC(=O)NC(=O)c2ccccc2N(C)C)ccc1Oc1ncc(Br)cn1,inhibition,Toll-like receptor 1/2 [2],Active
same,inhibition,Toll-like receptor 1/2 [3],Active
H-ENLMVEEY-OH,inhibition,Toll-like receptor 1/2 [4],66%
H-ENLMVEEYLK-OH,inhibition,TLR2/TLR6 (Homo sapiens),inactive
same,IC50,Toll-like receptor 1/2 [5],45.8 µM
same,inhibition,Toll-like receptor 1/2 [5],Dose-dependent effect
same,inhibition,[6],inactive
same,Activity,Toll-like receptor 1/2 [7],727 pg/mL
same,inhibition,Toll-like receptor 1/2 [8],Active
same,inhibition,Toll-like receptor 1/2 [9],Active
same,inhibition,Toll-like receptor 1/2 [10],inactive
same,Activity,Toll-like receptor 1/2 [11],51%
same,inhibition,[12],inactive
same,inhibition,[13],Active
same,inhibition,Toll-like receptor 1/2 [14],Active
same,inhibition,Toll-like receptor 1/2 [15],50%
same,inhibition,Toll-like receptor 1/2 [16],Active
same,Activity,BMDM,Non-Toxic
same,inhibition,[17],inactive
same,Activity,[18],70.2%
same,Activity,[19],80%
same,Activity,THP-1,Non-Toxic
same,Activity,HEK293,Non-Toxic
H-ENSKVFLVPC-OH,inhibition,Toll-like receptor 1/2 [4],Active
H-HIPRFYLFY-OH,inhibition,Toll-like receptor 1/2 [4],56%
H-HIPRFYLFYD-OH,inhibition,TLR2/TLR6 (Homo sapiens),inactive
same,IC50,Toll-like receptor 1/2 [5],49.2 µM
same,inhibition,Toll-like receptor 1/2 [5],Dose-dependent effect
same,inhibition,[6],inactive
same,inhibition,Toll-like receptor 1/2 [8],Active
same,inhibition,Toll-like receptor 1/2 [20],Active
same,inhibition,Toll-like receptor 1/2 [9],Active
same,inhibition,Toll-like receptor 1/2 [10],inactive
same,Activity,Toll-like receptor 1/2 [11],51%
same,inhibition,[12],inactive
same,inhibition,[13],Active
same,inhibition,Toll-like receptor 1/2 [14],Active
same,inhibition,Toll-like receptor 1/2 [15],50%
same,inhibition,Toll-like receptor 1/2 [16],Active
same,Activity,BMDM,Non-Toxic
same,inhibition,[17],inactive
same,Activity,[18],37.4%
same,Activity,[19],70%
same,Activity,THP-1,Non-Toxic
same,Activity,HEK293,Non-Toxic
H-LHIPRFYLFYD-OH,inhibition,Toll-like receptor 1/2 [4],56%
H-RLHIPRFYL-OH,inhibition,Toll-like receptor 1/2 [4],81.9%
H-SENLMVEEYLK-OH,inhibition,Toll-like receptor 1/2 [4],56%
H-TIRRLHIPR-OH,inhibition,Toll-like receptor 1/2 [4],84.1%
H-VETLTIRRL-OH,inhibition,Toll-like receptor 1/2 [4],86%
H-VVSDVFGFP-OH,inhibition,Toll-like receptor 1/2 [4],Active
